The target of the assay is intracellular domain of the DDR1 protein (Homo sapiens (Human), UniProt Q08345). The assay can be described thus: In vitro binding competition assay for DDR1 (Eu-labeled anti-GST antibody / tracer FRET). Particulars: recombinant GST-tagged protein, one hour incubation at room temperature.
Sequence of intracellular domain of the DDR1 protein (Q08345 439-913): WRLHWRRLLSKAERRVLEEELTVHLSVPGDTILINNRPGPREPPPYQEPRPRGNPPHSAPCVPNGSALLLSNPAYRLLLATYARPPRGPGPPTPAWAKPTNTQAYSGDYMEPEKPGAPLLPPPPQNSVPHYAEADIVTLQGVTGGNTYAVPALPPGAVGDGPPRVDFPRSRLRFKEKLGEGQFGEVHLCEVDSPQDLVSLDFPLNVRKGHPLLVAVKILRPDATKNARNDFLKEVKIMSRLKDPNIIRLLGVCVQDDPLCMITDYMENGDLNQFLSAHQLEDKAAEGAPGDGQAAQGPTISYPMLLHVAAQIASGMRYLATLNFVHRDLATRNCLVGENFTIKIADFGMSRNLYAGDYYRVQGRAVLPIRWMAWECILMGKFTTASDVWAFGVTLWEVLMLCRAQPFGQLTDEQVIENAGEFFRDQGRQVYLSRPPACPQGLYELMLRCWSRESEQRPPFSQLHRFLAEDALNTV

Description: This assay is based on the intracellular domain of the DDR1 protein which contains the kinase active site. The recombinant protein additionally carries a GST-tag that can be recognized by an Eu-labeled anti-GST antibody. […] Excitation energy absorbed by the Europium complex (350 nm flash light or pulsed laser) is transferred to a suitable fluorescent dye, if it is in close proximity. Compounds binding competitively with the tracer molecule will displace the bound tracer molecules and reduce the FRET signal in a dose dependent manner. Due to the long lifetime of the Eu excited state, the emission of the donor and the acceptor can be measured in time-gated mode such that most of the intrinsic fluorescence contributions have already decayed. […] This sensitive detection method enables protein concentrations below 20 nM.
Protein, tracer and labeled antibody were obtained from commercial sources. […] Dose response curves were generated from 16 compound dilutions in DMSO as solvent compound dilutions, a solution containing protein and labeled antibody, and a solution containing the tracer which is added in the last step. The fluorescence of donor and acceptor were then measured after one hour incubation at room temperature. Every assay run was quality-controlled with dose response curves for two reference compounds.

For `O=C(CN1CN(c2ccccc2)C2(CCN(C(=O)c3ccc4[nH]ncc4c3)CC2)C1=O)NCC(F)(F)F` [Example 7, 2-(8-(1H-Indazole-5-carbonyl)-4-oxo-1-phenyl-1,3,8-triazaspiro[4.5]decan-3-yl)-N-(2,2,2-trifluoroethyl)acetamide], the IC50 (in general, the concentration at which inhibition is half-maximal) came out at 15.5 nM.

As for `O=C(CN1CN(c2ccccc2)C2(CCN(C(=O)c3ccc4[nH]ncc4n3)CC2)C1=O)NCC(F)(F)F` [Example 91, 2-(4-Oxo-1-phenyl-8-(1H-pyrazolo[4,3-b]pyridine-5-carbonyl)-1,3,8-triazaspiro[4.5]decan-3-yl)-N-(2,2,2-trifluoroethyl)acetamide], the 50% inhibitory concentration (IC50) was determined as 19.4 nM.

For the origin of these results see patent US10239876B2, “Triaza-spirodecanones as DDR1 inhibitors” (Hoffmann La-Roche Inc., priority 2015, dated 2019).
